The values below come from patent US20190054060A1 (priority 2016, published 2019).

Assay [1] deals with influenza A(H3N2) infection with pneumonia. The settings on record: human, in vivo.
Assay [2] deals with NIRV mutants E119V, R292K and N294S. The settings on record: cited from earlier work.

With `CCOC(=O)C1=C[C@@H](OC(CC)CC)[C@H](NC(C)=O)[C@@H](N)C1` [Oseltamivir, ethyl (3R,4R,5S)-5-amino-4-acetamido-3-(pentan-3-yloxy)-cyclohex-1-ene-1-carboxylate], in assay [1], the “Admission to ICU - (%)” value is “(2.7) %”, the “Admission to ICU - no.” value amounted to 3 no, the “Complications: Nosocomial infection - (%)” value was “(5.5) %” and the “Complications: Nosocomial infection - no.” value is given as 6 no. Besides, in assay [1], the “Complications: Ventilator associated pneumonia - (%)” value was “(0.9) %”, the “Complications: Ventilator associated pneumonia - no.” value is recorded as 1 no, the “Length of hospitalization (median; IQR)” value amounted to 3 and the “Mortality 90-day - (%)” value was “(10) %”. Besides, in assay [1], the “Mortality 90-day - no.” value is reported as 11 no, the “Readmission ≤30 days from discharge - (%)” value is on record as “(17.3) %” and the “Readmission ≤30 days from discharge - no.” value stood at 19 no. Also, the “increase of the 50% inhibitory concentration (IC50) by NIRV mutants” value in assay [2] was more than 100 fold.
